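Five compound concentrations were applied to cells in 96-well plates for 48 hours; endpoints were derived by simple linear interpolation of the resulting dose-response curve. GI50 marks 50% less growth.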 Active and inactive are the calls of the source. No stated cut-off is given here; in the data, active = GI50 up to about 1.1 µM and inactive = higher.

Among the test systems are BT-549; Hs-578T; LXFL 529; SNB-78; DLD-1; HOP-18; DMS-114; XF498.
Holding throughout (test): NCI-60 cell line screen, 48 h

With `CN(C)CCNCCN`, the GI50 in the assay on BT-549 and with Hs-578T was > 100 µM (inactive) throughout.
As to `Cc1cc(C)c(O)c(Cc2cccc(Cc3cc(C)cc(C)c3O)c2O)c1`, the GI50 in the assay on BT-549 and with Hs-578T was > 100 µM (inactive) in each case.
In the case of `Cc1ccc(-c2cs/c(=N\c3ccccc3)n2NC(=O)c2ccncc2)cc1`, the GI50 in the assay on BT-549 was 30.8 µM (inactive); with Hs-578T, 57.5 µM (inactive).
On to `CCOc1ccccc1-c1nc2c(s1)C(=O)c1ccccc1C2=O`, for which the GI50 in the assay with Hs-578T was 19 µM (inactive).
On to `OCc1cc2c([nH]c3ccccc32)c(C(O)CO)n1` (stereo unspecified), for which the GI50 with BT-549 and in the assay on Hs-578T was > 100 µM (inactive) throughout.
For the compound `O=C(/C=C1\Nc2ccc([N+](=O)[O-])cc2N=C1NC12CC3CC(CC(C3)C1)C2)c1ccccc1`, the GI50 in the assay on Hs-578T is 3.76 µM (inactive).
Turning to `NC(=O)c1ccc[n+](C2=C([N-]S(=O)(=O)c3ccccc3)C(=O)c3ccccc3C2=O)c1`, the GI50 in the assay with BT-549 is 14.8 µM (inactive); with Hs-578T it was 22 µM (inactive).
On to `CC(=O)c1cccc(C)c1C(=O)O`, for which the GI50 was > 100 µM (inactive) in the assay on LXFL 529; 95.5 µM (inactive) in the assay with SNB-78; > 100 µM (inactive) with DLD-1; > 100 µM (inactive) in the assay with HOP-18; > 100 µM (inactive) in the assay with DMS-114.
For the compound `CCOC(=O)c1nc2cc(C(F)(F)F)ccc2nc1Nc1ccc(F)cc1`, the GI50 with BT-549 is 25.9 µM (inactive).
For the compound `CSc1nc2c(c(=O)[nH]1)N=C(c1ccccc1)CC(c1ccccc1)N2` (stereo unspecified), the GI50 with BT-549 is 28.5 µM (inactive).
With `CC(C)/C(Cl)=N\OC(=O)Nc1cccc(Cl)c1`, in the assay with Hs-578T, the GI50 is 28.3 µM (inactive).
As to `CCOC(=O)c1cc2c3ccn(Cc4ccccc4)c3c3c(C)noc3c2[nH]1`, the GI50 with BT-549 and in the assay on Hs-578T was > 100 µM (inactive) in each case.
As to `O=c1[nH]nc(Cc2ccccc2)n1O`, the GI50 with BT-549 and with Hs-578T was > 100 µM (inactive) each time.
With `COc1cccc2c1-c1c(OC)cccc1SS2`, the GI50 in the assay on BT-549 was 27.6 µM (inactive); in the assay with Hs-578T, 26.1 µM (inactive).
In the case of `C=CCOc1ccc(C(=N/NC(=O)c2ccccc2)/N=N/c2ccc(C)cc2)cc1OC`, the GI50 was 18.3 µM (inactive) in the assay on BT-549 and 23.4 µM (inactive) in the assay on Hs-578T.
For `O=C(/C=C\c1ccccc1-c1ccccc1)c1ccccc1`, in the assay on Hs-578T, the GI50 is > 100 µM (inactive).
For `O=C(Nc1ccc(Cl)cc1)c1cc(S(=O)(=O)Nc2n[nH]c(=O)[nH]2)c(SSc2cc(Cl)c(C(=O)Nc3ccc(Cl)cc3)cc2S(=O)(=O)Nc2n[nH]c(=O)[nH]2)cc1Cl`, the GI50 in the assay with BT-549 and with Hs-578T was > 100 µM (inactive) each time.
In the case of `COc1cc2c(cc1O)C1Cc3ccc(OC)c(O)c3C(C2)N1C` (stereo unspecified), the GI50 in the assay with BT-549 was > 100 µM (inactive); with Hs-578T it was 42.8 µM (inactive).
As to `CC(C)c1cccc(C(C)C)c1NC(=O)CCC(=O)NN`, the GI50 in the assay on LXFL 529, in the assay with SNB-78, with DLD-1, in the assay on HOP-18 and in the assay with DMS-114 was > 100 µM (inactive) each time.
Regarding `O=C(CC/C(CC(=O)c1ccc(Cl)cc1)=N\O)Nc1cccc(Cl)c1`, the GI50 in the assay with XF498, in the assay on LXFL 529, with SNB-78, in the assay on DLD-1 and in the assay on DMS-114 was > 100 µM (inactive) throughout.
Regarding `CCOP(=O)(OCC)OC1c2[nH]ccc2-c2cc(C(=O)OC)[nH]c2C1OC` (stereo unspecified), the figures for the GI50 in the assay on BT-549 and in the assay on Hs-578T were 36.5 µM (inactive) and 44.2 µM (inactive), respectively.
`CCSC1=N/C(=C/c2ccccc2O)C(=O)N1`: the GI50 in the assay with BT-549 was > 100 µM (inactive); in the assay with Hs-578T, 33.7 µM (inactive).
On to `Cc1nc2cc(/N=N/c3c(O)ccc4ccccc34)ccc2[nH]1`, for which the GI50 is 27.2 µM (inactive) in the assay on BT-549; 19.9 µM (inactive) with LXFL 529; 83 µM (inactive) in the assay on SNB-78; 28.2 µM (inactive) in the assay on Hs-578T; 24 µM (inactive) in the assay with DLD-1; 25.8 µM (inactive) in the assay on DMS-114.
`Cc1cc(C)c2c(c1)CN1CN2Cc2cc(C)cc(C)c21`: the GI50 was 18.2 µM (inactive) with XF498; 32.7 µM (inactive) in the assay with LXFL 529; 17.5 µM (inactive) in the assay with SNB-78; 24.7 µM (inactive) in the assay with DLD-1; 36.4 µM (inactive) with HOP-18.
With `CC(=O)O[C@H]1[C@@H](OC2CCCC2(c2ccccc2)c2ccccc2)O[N+]([O-])=C[C@@H]1c1ccccc1` (stereo partly specified), the GI50 in the assay with BT-549 was 4.24 µM (inactive); with Hs-578T, 6.53 µM (inactive).
For `O=C1/C(=C/c2ccco2)NC(=S)N1CN1CCCCC1`, in the assay on Hs-578T, the GI50 was 83.6 µM (inactive).
For `Cn1c(=O)c2c(ncn2Cc2ccc(O)c([N+](=O)[O-])c2)n(C)c1=O`, the GI50 in the assay on BT-549 and with Hs-578T was > 100 µM (inactive) in each case.
Turning to `COc1ccc(/C=N/N=C(\N)NO)c(OC)c1OC`, in the assay on Hs-578T, the GI50 is > 100 µM (inactive).
As for `O=CNCCCN1CCN(CCCNC=O)CC1`, the GI50 in the assay on BT-549 is > 100 µM (inactive).
On to `CC1CC/C(=C\c2ccc(F)cc2)C2=C1C(c1ccc(F)cc1)NC(=S)N2` (stereo unspecified), for which the GI50 was 35.1 µM (inactive) with BT-549 and > 100 µM (inactive) with Hs-578T.
For `N#CC1=C(N)N2C(=O)/C(=C/c3ccccc3O)N=C2S1`, the GI50 in the assay with Hs-578T was 31.3 µM (inactive).
On the same count and under the same terms, then `O=C(NN=C1CCN(Cc2ccccc2)CC1)C(O)(c1ccccc1)c1ccccc1`, with > 100 µM (inactive).
On to `CCC1(c2ccc(OC)c(OC)c2)CCN2C(=O)C(O)CC21` (stereo unspecified), for which the GI50 in the assay with BT-549 is > 100 µM (inactive).
As to `CN(/N=C/c1ccccc1C(=O)O)C1=NCCCCN1`, the GI50 in the assay with BT-549 and in the assay on Hs-578T was > 100 µM (inactive) each time.
In the case of `CSC(=S)Nc1cc(C)ccn1`, the GI50 in the assay with Hs-578T is > 100 µM (inactive).
Take `O=C(OCc1ccccc1)c1ccccc1-c1c2ccc(=O)cc-2oc2cc(OCc3ccccc3)ccc12`: the GI50 is 15.7 µM (inactive) with XF498, 4.88 µM (inactive) in the assay on LXFL 529, 22.6 µM (inactive) in the assay with SNB-78 and 5.01 µM (inactive) in the assay with DLD-1.
Regarding `CCOc1ccc2nc3cc(/N=N/c4ccc(N)nc4N)ccc3c(N)c2c1`, the figures for the GI50 in the assay with BT-549 and in the assay on Hs-578T were 13.4 µM (inactive) and 3.13 µM (inactive), respectively.
Consider `NC(=O)c1cn(Cc2ccccc2)c(=O)n1Cc1ccccc1`, for which the GI50 in the assay on XF498, in the assay on LXFL 529, with SNB-78, with DLD-1 and in the assay on HOP-18 was > 100 µM (inactive) throughout.
For the compound `CC1=NC(=N)N=C(C)C1/N=N/c1ccc2[nH]c(C)nc2c1` (stereo unspecified), the GI50 in the assay with BT-549 and in the assay on Hs-578T was > 100 µM (inactive) each time.
For the compound `CC(=O)NC(Cc1ccc(OP(=O)(OCc2ccc([N+](=O)[O-])o2)N(C)CCCCCl)cc1)C(=O)NC(C)c1ccc(OCC2CCCCC2)c(C(N)=O)c1` (stereo unspecified), the GI50 with Hs-578T was 2.14 µM (inactive).
`Oc1nnc2c(-c3ccccc3)n[nH]c2n1`: the GI50 in the assay with LXFL 529, with SNB-78, in the assay with DLD-1 and in the assay on DMS-114 was > 100 µM (inactive) in each case.
For `COC(=O)C(=O)C(C(=O)C(=O)Nc1cccc(OC)c1)c1nc2ccc(Cl)cc2nc1O` (stereo unspecified), the GI50 was > 100 µM (inactive) in the assay on BT-549 and 72.4 µM (inactive) with Hs-578T.
For the compound `O=C(O)c1ccc(Nc2nc3nn(Cc4ccccc4)cc3c(=O)s2)cc1`, the GI50 was > 100 µM (inactive) in the assay on LXFL 529; > 100 µM (inactive) in the assay on SNB-78; > 100 µM (inactive) with DLD-1; 74.8 µM (inactive) in the assay on HOP-18; > 100 µM (inactive) in the assay on DMS-114.
For `CC(C)C1=CCC2C(=C1)CCC1C(C)(C(=O)O)CCCC21C` (stereo unspecified), the GI50 in the assay with BT-549 and with Hs-578T was > 100 µM (inactive) throughout.
As to `NCCN1CCCCCc2ccccc21`, the GI50 with Hs-578T was > 10 µM (inactive).
`OC(c1ccccc1Br)(c1ccccc1Br)C(F)(F)F`: the GI50 with XF498 is 23.1 µM (inactive); in the assay on LXFL 529, 42.1 µM (inactive); in the assay on DLD-1 it was 37.5 µM (inactive); in the assay on HOP-18, 42.8 µM (inactive); in the assay on DMS-114, 20.8 µM (inactive).
With `CC(C)=CCC/C(C)=C/Cc1c2c(c3oc(-c4ccc(O)c(O)c4)c(O)c(=O)c3c1O)C=CC(C)(C)O2`, the GI50 was 7.66 µM (inactive) in the assay with BT-549 and 9.46 µM (inactive) with Hs-578T.
`O=C(CCC(=O)Nc1cccc(Cl)c1)CC(=O)c1ccc(F)cc1`: the GI50 in the assay on XF498, with SNB-78 and in the assay on DLD-1 was > 100 µM (inactive) each time.
`CCOC(C)OCC#CCCBr` (stereo unspecified): the GI50 was > 100 µM (inactive) with LXFL 529; > 100 µM (inactive) in the assay on SNB-78; > 100 µM (inactive) in the assay with DLD-1; > 100 µM (inactive) in the assay on HOP-18; 79.1 µM (inactive) with DMS-114.
As to `C#CCOC(=O)C(N)CS` (stereo unspecified), the GI50 with BT-549 and in the assay on Hs-578T was > 100 µM (inactive) throughout.
As for `O=[N+]([O-])C(=C(NCc1ccccc1)NCc1ccccc1)C(Cl)=C(Cl)Cl`, the figures for the GI50 with BT-549 and in the assay on Hs-578T were 34.4 µM (inactive) and 49.2 µM (inactive), respectively.
Turning to `CC(=O)O[C@]12CCCCCC1C1(O)C(O)CCCCC12` (stereo partly specified), the GI50 with XF498, in the assay with LXFL 529, in the assay with SNB-78 and in the assay on DMS-114 was > 100 µM (inactive) each time.
In the case of `CC(=O)OC12CC[N+]3(C)CCCCC3C1=Nc1ccccc12` (stereo unspecified), the GI50 in the assay on BT-549 and with Hs-578T was > 100 µM (inactive) throughout.
For `CCCCCCCCCCCCCCCCOCC(Cl)CP(=O)(O)OP(=O)(O)OCC1OC(n2cnc3c(N)ncnc32)C(O)C1O` (stereo unspecified), the GI50 in the assay on BT-549 and with Hs-578T was > 100 µM (inactive) in each case.
In the case of `CCC(CCCCC1CC[C@H]2CC(=O)C[C@@H]12)OC` (stereo partly specified), the GI50 in the assay with BT-549 was > 100 µM (inactive).
For `C=C1C(=O)O[C@@H]2/C=C(/C)[C@@H](OC(C)=O)C[C@@H](O)/C(C)=C\[C@@H](OC(=O)[C@]3(C)O[C@@H]3C)[C@@H]12`, the values for the GI50 in the assay with BT-549 and with Hs-578T were 5.83 µM (inactive) and 42.6 µM (inactive), respectively.
On to `Cc1ccc2c(O)cc(-c3ccc(Cl)cc3)nc2n1`, for which the figures for the GI50 with BT-549 and in the assay with Hs-578T were 2.38 µM (inactive) and 11.9 µM (inactive), respectively.
Regarding `CN(C)Cc1cc(C(=O)/C=C/c2ccc(Cl)cc2Cl)cc(CN(C)C)c1O`, the GI50 in the assay with Hs-578T was 3.82 µM (inactive).
Consider `C[C@@H]1C[C@H](O)[C@]2(O)O[C@@H]3C[C@@]4(C=O)[C@@H](CC[C@@H]5[C@@H]4CC[C@]4(C)[C@@H](C6=CC(=O)OC6)CC[C@]54O)C[C@H]3O[C@@H]2O1` [CALOTROPIN], for which the results for the GI50 in the assay on BT-549 and in the assay with Hs-578T were 0.0231 µM (active) and 0.0263 µM (active), respectively.

Source of the values: ChEMBL document CHEMBL1201862, “PubChem BioAssay data set” (2004).
